Test results: patent publication US9840583B2, “Fluorescent polymers and applications thereof” (Board of Regents, The University of Texas System, priority 2013, dated 2017)

Assay: Photostability under continuous UV excitation
Format: physicochemical
Conditions: continuous UV excitation for 3 h
Description: The photostability of ABPLP micelles was also investigated and compared to the organic fluorescent dye rhodamine-B. The fluorescence intensity of the ABPLP micelle solution decreased by only 1 percent of the initial intensity after continuous UV excitation for 3 h, indicating excellent photostability. In contrast, rhodamine-B lost almost 10 percent of initial fluorescence intensity within the same experimental period.

Loss of initial fluorescence intensity: ~10%
SMILES: CCN(CC)c1ccc2c(-c3ccccc3C(=O)O)c3ccc(=[N+](CC)CC)cc-3oc2c1.[Cl-] [rhodamine-B]
